Results: patent publication US5773573A, “HIV peptides” (priority 1994, dated 1998)
Residues, ends and D or L forms follow the SMILES beside them.

Columns and labels:
[1] = system: autologous PHA T cell blasts; assay: Cytotoxicity Assay (51Cr release) of peptide-induced short-term PBMC cultures against autologous targets; format: cell-based, human; conditions: for autoreactive response (autocytotoxic, 51Cr release): peptide stimulant 100 ng/ml 4-8 hours
Description: (§1) Peripheral Blood Mononuclear Cells (PBMC) were isolated from 8 HIV seronegative individuals who volunteered as donors for the study. […] PBMC (10^6 /ml) from the each of the donors were incubated in the presence of VHP1 or control peptide at 100 ng/ml for 4-8 hours to produce Effector Cells. Irradiated autologous PBMC without VHP1 stimulation served as controls.
(§2) VHP1 induced short-term cultures of autoreactive T cells (Effector Cells) were assayed for cytotoxic activity against autologous PHA T cell blasts stimulated with 5 μg/ml PHA for 4-5 days at a concentration of 10^4 cells/well in the absence of either control or VHP1 peptide (Target Cells). 1-2×10^6 Target Cells were labeled with […] of ^51 Cr in 0.3 ml of medium for 1 hour at 37° C. Target cells were washed 3× in medium, diluted to 10^5 or 10^4 cells/ml and […] of cell suspension added to each well of a V-bottomed 96-well microtitre plate. Effector Cells were added to the Target Cells at Effector:Target (E:T) ratios from 50:1 to 6.25:1. Cultures were incubated for 4 hours at 37° C. and supernatants were harvested and counted for ^51 Cr release. Percent cytotoxicity is calculated using the formula : […] (experimental release-spontaneous release)/(maximum release-spontaneous release). Spontaneous release and maximum release were determined by incubating target cells in medium or 1.0% Triton ×-100 respectively. Results where calculated as means ± Standard Deviations (SD) of triplicate cultures and a positive result was scored above 20% specific lysis. The cytotoxicity assay was repeated for allogeneic Target cells from donors (Target-1, Target-2 and Target-3) and the percent specific lysis scored at an Effector:Target ratio of 10:1.

[2] = system: allogeneic PHA activated T cell Targets; assay: Cytotoxicity Assay (51Cr release) of VHP1-induced Effectors against allogeneic targets; format: cell-based, human
Description: as §1, §2
To establish the MHC specificity of the cytotoxic cells stimulated by VHP1, further Cytotoxicity Assays with allogeneic PHA activated T cell Targets with different MHC phenotypes were then performed. The Effectors were derived from short term cultures of PBMC from donors of either MHC B8 or B35 (trigger+) incubated with VHP1 for 4-8 hours. The Target Cells were from donors with either B8 B35 (trigger+) or B27(Trigger-) MHC phenotype. Target PBMC incubated with radioactive ^51 Cr for one hour before being mixed with Effectors. Effector Cells were mixed with radiolabelled Target Cells and incubated for 4 hours and lysis was measured by release of radioactive ^51 Cr.
The measurement of percent specific lysis by ^51 Cr release at an Effector to Target Ratio of 10:1.

[3] = short term cultures of PBMC from donors positive for B8 or B35 (trigger+)

Structure (SMILES)	autoreactive response (autocytotoxic, 51Cr release) ([1]; PBMC of donor eight (Trigger+))	autoreactive response (autocytotoxic, 51Cr release) ([1]; PBMC of donor five (Trigger+))	autoreactive response (autocytotoxic, 51Cr release) ([1]; PBMC of donor four (Trigger-))	autoreactive response (autocytotoxic, 51Cr release) ([1]; PBMC of donor nine (Trigger-))	autoreactive response (autocytotoxic, 51Cr release) ([1]; PBMC of donor one (Trigger-))	autoreactive response (autocytotoxic, 51Cr release) ([1]; PBMC of donor seven (Trigger+))	autoreactive response (autocytotoxic, 51Cr release) ([1]; PBMC of donor six (Trigger+))	autoreactive response (autocytotoxic, 51Cr release) ([1]; PBMC of donor two (Trigger-))	autocytotoxic responses against activated autologous T cell targets [1, 3]	autocytotoxic responses against activated autologous T cell targets ([1]; short term cultures of PBMC from donors negative for B8 or B35 (trigger-))	percent specific lysis by 51Cr release ([2]; VHP1-induced Effectors JMC-B8, Target1-B8, Effector to Target Ratio 10:1)	percent specific lysis by 51Cr release ([2]; VHP1-induced Effectors JMC-B8, Target2-B35, Effector to Target Ratio 10:1)	percent specific lysis by 51Cr release ([2]; VHP1-induced Effectors JMC-B8, Target3-B27, Effector to Target Ratio 10:1)	percent specific lysis by 51Cr release ([2]; VHP1-induced Effectors SW-B35, Target1-B8, Effector to Target Ratio 10:1)	percent specific lysis by 51Cr release ([2]; VHP1-induced Effectors SW-B35, Target2-B35, Effector to Target Ratio 10:1)	percent specific lysis by 51Cr release ([2]; VHP1-induced Effectors SW-B35, Target3-B27, Effector to Target Ratio 10:1)	percent specific lysis by 51Cr release ([2]; VHP1-induced Effectors WW-B35, Target1-B8, Effector to Target Ratio 10:1)	percent specific lysis by 51Cr release ([2]; VHP1-induced Effectors WW-B35, Target2-B35, Effector to Target Ratio 10:1)	percent specific lysis by 51Cr release ([2]; VHP1-induced Effectors WW-B35, Target3-B27, Effector to Target Ratio 10:1)
CC(C)C[C@H](N)C(=O)N[C@@H](CCC(=O)O)C(=O)N[C@@H](CC(=O)O)C(=O)N[C@@H](CCCNC(=N)N)C(=O)N[C@@H](CCCNC(=N)N)C(=O)N[C@@H](C)C(=O)N[C@@H](C)C(=O)N[C@H](C(=O)N[C@@H](CC(=O)O)C(=O)N[C@H](C(=O)N[C@H](C(=O)N[C@@H](CS)C(=O)N[C@@H](CCCNC(=N)N)C(=O)N[C@@H](C)C(=O)O)C(C)C)[C@@H](C)O)C(C)C [Control, NH2 LeuGluAspArgArgAlaAlaValAspThrValCysArgAlaCOOH] (H-LEDRRAAVDTVCRA-OH)	- (a positive result was scored above 20% specific lysis)	- (a positive result was scored above 20% specific lysis)	- (a positive result was scored above 20% specific lysis)	- (a positive result was scored above 20% specific lysis)	- (a positive result was scored above 20% specific lysis)	- (a positive result was scored above 20% specific lysis)	- (a positive result was scored above 20% specific lysis)	- (a positive result was scored above 20% specific lysis)	did not produce significant levels										
CC(C)[C@H](NC(=O)[C@H](CCCNC(=N)N)NC(=O)[C@H](CCCNC(=N)N)NC(=O)[C@H](CCCCN)NC(=O)[C@H](C)NC(=O)[C@H](CCCCN)NC(=O)[C@@H](N)[C@@H](C)O)C(=O)N[C@H](C(=O)N[C@@H](CCC(=O)O)C(=O)N[C@@H](CCCNC(=N)N)C(=O)N[C@@H](CCC(=O)O)C(=O)N[C@@H](CCCCN)C(=O)N[C@@H](CCCNC(=N)N)C(=O)O)C(C)C [VHP1, NH2 ThrLysAlaLysArgArgValValGluArgGluLysArgCOOH] (H-TKAKRRVVEREKR-OH)	+ (a positive result was scored above 20% specific lysis)	+ (a positive result was scored above 20% specific lysis)	- (a positive result was scored above 20% specific lysis)	- (a positive result was scored above 20% specific lysis)	- (a positive result was scored above 20% specific lysis)	+ (a positive result was scored above 20% specific lysis)	+ (a positive result was scored above 20% specific lysis)	- (a positive result was scored above 20% specific lysis)	significant autocytoxic responses	did not produce significant levels	30%	30%	7%	9%	10%	2%	30%	32%	14%
